# Results reported in US8933101B2, “Thia(dia)zoles as fast dissociating dopamine 2 receptor antagonists” (Janssen Pharmaceutica NV, priority 2007, dated 2015).
# Counter-ions that a name gives are not always drawn.
row,melting point [°C],SMILES
1,85.8,CN(c1nnc(C(F)(F)F)s1)C1CCN(Cc2ccc(F)cc2)CC1
2,130.2,Fc1cc(CN2CCC(Nc3nnc(C(F)(F)F)s3)CC2)ccc1C(F)(F)F
3,238,Fc1ccc(CN2CCC(Nc3nc(C(F)(F)F)cs3)CC2)cc1F (as salt: hydrochloride)
4,211.3,N#Cc1nnc(NC2CCN(Cc3cc(F)c(F)c(F)c3)CC2)s1
5,80.5,CN(c1nnc(C(F)(F)F)s1)C1CCN(Cc2cccc(F)c2)CC1
6,199.4,N#Cc1nnc(NC2CCN(Cc3ccc(F)c(F)c3)CC2)s1
7,116.3,FC(F)(F)Oc1cccc(CN2CCC(Nc3nnc(C(F)(F)F)s3)CC2)c1
